Results as given in PubChem BioAssay AID434987 (Southern Research Specialized Biocontainment Screening …, 2010).
Calls of active or inactive are those of the source. How the calls were made is not given here.

System: M. tuberculosis H37Rv growth inhibition with meropenem
Assay: dose response, H37Rv, with and without meropenem (AID 434987);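 further: growth over 7 days at 37 °C before Alamar Blue read on day 9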
[1] = M. tuberculosis H37Rv growth inhibition, measured here: IC50 without meropenem
[2] = M. tuberculosis H37Rv growth inhibition, measured here: IC90 without meropenem
[3] = measured here: IC90 with meropenem

SMILES	IC50	IC50 [1] [µM]	IC90 [2] [µM]	IC90 [3] [µM]
COC(=O)/C(=C\Nc1ccc(Cl)c2ccccc12)c1ncc(C(F)(F)F)cc1Cl	36 µM	> 100	> 100	> 100
O=C(OCC(=O)N(Cc1ccccc1)C1CCS(=O)(=O)C1)c1cc2c(s1)CCCC2 (configuration not stated)	90.7 µM (inactive)	94.2	> 100	> 100
CCC(C)NCCOCCOc1ccc(Cl)c2ccccc12 (configuration not stated)	32 µM (inactive)	38.3	53.3	50.7
O=C(COC(=O)C1CC1)NCc1ccccc1Cl	1.37 µM	> 100	> 100	> 100
CCCC(C)NC(=O)c1ccc(OCc2ccc(Cl)cc2)c(OC)c1 (configuration not stated)	7.56 µM	36.2	> 100	11.6
COCc1cc(=O)n2[nH]cc(-c3ccccc3)c2n1	10.1 µM	41.4	> 100	15.5
Cc1cc(C(=O)CN2C(=O)NC(C)(CC(C)C)C2=O)c(C)n1-c1ccc2c(c1)OCO2 (configuration not stated)	70 µM (inactive)	74.7	99.9	96.4
Cc1ccc(C)c(N2CCN(CC3CC=CCC3)CC2)c1 (configuration not stated)	25.6 µM	79.8	> 100	60.7
CC1CCCN(S(=O)(=O)c2ccc(C(=O)Nc3nnc(-c4ccncc4)o3)cc2)C1 (configuration not stated)	32.4 µM (inactive)	49.3	78.1	64.8
Cc1nn(C)c(C(=O)NC(=S)Nc2ccccc2Br)c1Cl	> 100 µM (inactive)	> 100	> 100	> 100
CC(C)c1ccc(S(=O)(=O)N2CCN(C(C)C(=O)NC3CCCC3)CC2)cc1 (configuration not stated)	> 100 µM (inactive)	> 100	> 100	> 100
COCCCNCCOCCOc1ccc(C)cc1Br	> 100 µM (inactive)	> 100	> 100	> 100
COc1ccc(-c2c(-c3ccsc3)oc3ccc(N4CCOCC4)cc23)cc1	> 100 µM (inactive)	> 100	> 100	> 100
CCN(CC)c1ccc(NC(=O)c2cc(Cl)ccc2OC)cc1	24.2 µM	> 100	> 100	> 100
O=C(Cn1c(=O)n(CCCC(=O)NC2CCCC2)c(=O)c2ccccc21)NCCC1=CCCCC1	> 100 µM (inactive)	> 100	> 100	> 100
Cc1cccc(C)c1-n1c(C)cc(/C=C2\C(=O)NN(c3ccccc3)C2=O)c1C	> 100 µM (inactive)	> 100	> 100	> 100
CN(C)S(=O)(=O)Oc1ccsc1C(=O)Nc1ccc(C(F)(F)F)cc1	> 100 µM (inactive)	> 100	> 100	> 100
CC(C)C(=O)Nc1ccc(NC(=S)NC(=O)c2ccc([N+](=O)[O-])cc2)cc1	> 100 µM (inactive)	> 100	> 100	> 100
COc1cc(/C(C)=N\NC(N)=S)cc(OC)c1OC	10.2 µM	> 100	> 100	19.6
Cc1cccc(CSc2nnc(C)c(=O)n2N)c1	5.94 µM (inactive)	12.4	20.9	9.9
COCc1nnc(NC(=O)c2ccc(S(=O)(=O)N(C)c3ccccc3)cc2)o1	17.4 µM (inactive)	40.3	> 100	> 100
COc1ccc(/C(O)=C/C(=O)C(=O)NNC(=O)C(O)(c2ccccc2)c2ccccc2)cc1	> 100 µM (inactive)	> 100	> 100	> 100
CC(=O)n1cc([C@@H]2C=C(C(=O)N3CCN(Cc4ccc5c(c4)OCO5)CC3)O[C@H](OCCCCO)C2)c2ccccc21	> 100 µM (inactive)	84	> 100	> 100
COc1ccc(-n2cc(-c3ccccc3)c3c(NN4CCOCC4)ncnc32)cc1	22.4 µM (inactive)	32.8	60.3	36.1
O=C(Cc1ccc(Cl)cc1Cl)Nc1ccc(OC(F)F)c(Cl)c1	12.1 µM	> 100	> 100	13.7
Cc1ccc(-n2ncc(-c3nnc(SCC(=O)NC4CCCC4)o3)c2N)cc1C	> 100 µM (inactive)	> 100	> 100	> 100
Cc1cc(=O)[nH]c(N/N=C/c2c(F)c(F)c(F)c(F)c2F)n1	64.6 µM (inactive)	92.1	> 100	82.3
COc1cc(CNCCO)cc(Br)c1OCc1ccccc1Cl	46.2 µM (inactive)	47.5	53.7	52.7
